Each molecule was assayed against T1, human CYP17 in H295R adrenocortical carcinoma cells (Homo sapiens, UniProt P05093) (assay: Cell-based human CYP17 inhibition assay, H295R cells). Conditions: 16 hours, read-out: CYP17 (human H295R adrenal cells).
T1 construct: H295R Adrenocortical carcinoma cells [NCI-H295A, ATCC Number CRL-2128, American Type Culture Collection; host or cells: H295R adrenocortical carcinoma cells
T1 sequence (P05093 1-508): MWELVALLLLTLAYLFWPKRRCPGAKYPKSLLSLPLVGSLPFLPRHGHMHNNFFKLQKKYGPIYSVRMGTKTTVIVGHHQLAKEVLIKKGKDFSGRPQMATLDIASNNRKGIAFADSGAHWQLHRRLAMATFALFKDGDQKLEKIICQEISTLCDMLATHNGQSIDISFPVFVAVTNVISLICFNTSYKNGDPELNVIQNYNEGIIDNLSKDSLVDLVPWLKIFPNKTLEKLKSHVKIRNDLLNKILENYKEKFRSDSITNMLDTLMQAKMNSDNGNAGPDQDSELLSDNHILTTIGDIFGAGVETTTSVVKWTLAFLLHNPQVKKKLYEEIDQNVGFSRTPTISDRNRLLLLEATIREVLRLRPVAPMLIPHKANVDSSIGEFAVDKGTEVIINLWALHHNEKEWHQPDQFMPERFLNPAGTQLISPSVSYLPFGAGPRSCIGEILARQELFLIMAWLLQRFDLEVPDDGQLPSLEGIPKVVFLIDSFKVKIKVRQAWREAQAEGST
Method in brief: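 H295R cells or LNCaP cells stably transfected with full-length human CYP17A1 (30,000/well) incubated 16 h at 37 °C with ³H-17α-hydroxypregnenolone and compound (top 10 μM, 3-fold dilutions, up to 10 concentrations). Medium chloroform-extracted and charcoal-treated; aqueous-phase radioactivity counted by scintillation.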

Structure (SMILES)	IC50
CC(O)(c1ccncc1)c1cnc(-c2ccc(F)cc2)s1 (single isomer, unassigned) [Example 8, 1-(2-(4-fluorophenyl)thiazol-5-yl)-1-(pyridin-4-yl)ethanol]	0.201 to 10 µM
Cn1cc(-c2ccc(C(C)(O)c3ccncc3)s2)ccc1=O (single isomer, unassigned; (-)) [Example 17, (−)-5-(5-(1-hydroxy-1-(pyridin-4-yl)ethyl)thiophen-2-yl)-1-methylpyridin-2(1H)-one]	< 0.05 µM
CCC(O)(c1ccncc1)c1cnc(-c2ccc(F)cc2)s1 (stereo not drawn) [Example 4, 1-(2-(4-fluorophenyl)-thiazol-5-yl)-1-(pyridin-4-yl)propan-1-ol]	0.05 to 0.2 µM
COc1ccc(-c2ccc(C(C)(O)c3ccncc3)nc2)cc1 (racemic) [Example 1, 1-(5-(4-Methoxyphenyl)pyridin-2-yl)-1-(pyridin-4-yl)ethanol]	0.05 to 0.2 µM
COc1ccc(-c2ccc(C(C)(O)c3ccncc3)nc2)cc1 (single isomer, unassigned) [Example 2, 1-(5-(4-methoxyphenyl)-pyridin-2-yl)-1-(pyridin-4-yl)ethanol]	0.05 to 0.2 µM
CC(O)(c1ccncc1)c1cnc(-c2ccc(F)cc2)s1 (racemic) [Example 7, 1-(2-(4-Fluorophenyl)thiazol-5-yl)-1-(pyridin-4-yl)ethanol]	0.05 to 0.2 µM
COc1ccc(-c2ccc(C(C)(O)c3ccncc3)nc2)cc1 (single isomer, unassigned) [Example 3, 1-(5-(4-methoxyphenyl)-pyridin-2-yl)-1-(pyridin-4-yl)ethanol]	0.201 to 10 µM
Cn1cc(-c2ccc(C(C)(O)c3ccncc3)s2)ccc1=O (stereo not drawn) [Example 15, 5-(5-(1-Hydroxy-1-(pyridin-4-yl)ethyl)thiophen-2-yl)-1-methyl-pyridin-2(1H)-one]	0.05 to 0.2 µM
CC(O)(c1ccncc1)c1ncc(-c2ccc(F)cc2)s1 (stereo not drawn) [Example 14, 1-(5-(4-Fluorophenyl)thiazol-2-yl)-1-(pyridin-4-yl)ethanol]	< 0.05 µM
CC(O)(c1ccncc1)c1nc(-c2ccc(F)cc2)no1 (single isomer, unassigned; (+)) [Example 36, (+)-1-(3-(4-fluoro-phenyl)-1,2,4-oxadiazol-5-yl)-1-(pyridin-4-yl)ethanol]	< 0.05 µM
CC(O)(c1ccncc1)c1cnc(-c2ccc(F)cc2)s1 (single isomer, unassigned) [Example 9, 1-(2-(4-fluorophenyl)thiazol-5-yl)-1-(pyridin-4-yl)ethanol]	< 0.05 µM
CC(O)(c1ccncc1)c1nc(-c2ccc(F)cc2)no1 (stereo not drawn) [Example 34, 1-(3-(4-Fluorophenyl)-1,2,4-oxadiazol-5-yl)-1-(pyridin-4-yl)ethanol]	< 0.05 µM

— patent publication US8809372B2, “Pyridine derivatives” (Endo Pharmaceuticals, Inc., priority 2011, dated 2014)
